# Counter-ions that a name gives are not always drawn. Like-named read-outs stand apart in the source and are kept apart here. Starred links: 1 amine or outer side, 2 acyl side, 3 side chain; linkers in the order of their positions; H or OH if unused. Positions of bridges follow the written chain, without caps; N, C: chain ends. Non-standard residues stand in square brackets, D forms with d. Residues, ends and D or L forms follow the SMILES beside them. *: point of attachment. hTyr(3S-OH,4S-OH,3'-OSO3H) = N[C@H](C(=O)O)[C@H](O)[C@@H](O)c1ccc(O)c(OS(=O)(=O)O)c1; Orn(4R-OH,5R-OH) = O=C([C@H](C[C@@H](O)[C@@H](O)N[*:3])N[*:1])[*:2]; Pro(3S-OH,4S-Me) = C[C@H]1CN[C@H](C(=O)O)[C@H]1O; X1 = CCCCCOc1ccc(-c2cc(-c3ccc(C(=O)*)cc3)no2)cc1; Gln(3R-OH) = NC(=O)C[C@@H](O)[C@H](N)C(=O)O; Hyp = O=C(O)[C@@H]1C[C@@H](O)CN1
# What was measured:
# Type in all cases: biochemical
# recombinant PRL-1 = target: T1, recombinant PRL-1 (Homo sapiens, UniProt Q93096); assay: In vitro phosphatase assay (DiFMUP hydrolysis), PRL-1; note: test concentration or dose not given here
# T1 construct: 6xHis (N, cleaved yes); made in house; host or cells: E. coli One Shot BL21 Star
# T1 sequence (Q93096 1-173): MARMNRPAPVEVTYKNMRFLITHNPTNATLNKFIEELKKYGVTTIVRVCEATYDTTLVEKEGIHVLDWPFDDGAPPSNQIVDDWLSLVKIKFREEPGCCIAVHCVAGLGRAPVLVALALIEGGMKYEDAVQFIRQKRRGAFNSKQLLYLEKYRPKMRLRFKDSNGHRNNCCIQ
# recombinant PRL-2 = target: T2, recombinant PRL-2 (Homo sapiens, UniProt Q12974); assay: In vitro phosphatase assay (DiFMUP hydrolysis), PRL-2;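 note: PRL-2 activity read as DiFMUP hydrolysis after 20 min at room temperature with drug, enzyme first pre-reduced at 4 °C for 20 min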
# T2 construct: 6xHis (N, cleaved yes); made in house; host or cells: E. coli One Shot BL21 Star
# T2 sequence (Q12974 1-167): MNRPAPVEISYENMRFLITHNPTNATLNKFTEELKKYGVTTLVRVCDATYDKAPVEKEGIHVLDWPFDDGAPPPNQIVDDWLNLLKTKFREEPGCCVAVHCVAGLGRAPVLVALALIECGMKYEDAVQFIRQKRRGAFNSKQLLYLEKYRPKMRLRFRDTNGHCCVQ
# recombinant PRL-3 = target: T3, recombinant PRL-3 (Homo sapiens, UniProt O75365); assay: In vitro phosphatase assay (DiFMUP hydrolysis), PRL-3; note: test concentration or dose not given here
# T3 construct: 6xHis (N, cleaved yes); made in house; host or cells: E. coli One Shot BL21 Star
# T3 sequence (O75365 whole entry): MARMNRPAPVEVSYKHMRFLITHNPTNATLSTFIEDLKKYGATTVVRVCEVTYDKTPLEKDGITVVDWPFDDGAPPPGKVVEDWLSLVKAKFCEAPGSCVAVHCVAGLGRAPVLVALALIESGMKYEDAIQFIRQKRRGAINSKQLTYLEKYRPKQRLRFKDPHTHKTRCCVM
# [1] = FDA-approved drug screen, compared to DMSO
# [2] = FDA-approved drug screen, activity compared to DMSO
Structure (SMILES),% Phosphatase Activity (compared to DMSO) PRL-1 (recombinant PRL-1; [1]) [%],% Phosphatase Activity (compared to DMSO) PRL-2 (recombinant PRL-2; [1]) [%],% Phosphatase Activity (compared to DMSO) PRL-3 (recombinant PRL-3; [1]) [%],further results
C[C@@H]1CCO[C@H]2Cn3cc(C(=O)NCc4ccc(F)cc4F)c(=O)c(O)c3C(=O)N12 [Dolutegravir (GSK1349572)],105,101,99,–
Cc1nc2n(c(=O)c1CCN1CCC(c3noc4cc(F)ccc34)CC1)CCCC2 [Risperidone],104,94,88,–
Cc1cc2c(s1)Nc1ccccc1N=C2N1CCN(C)CC1 [Olanzapine],99,97,80,–
CNC(=O)c1ccc2cc([C@@]3(O)CCn4cncc43)ccc2c1 [TAK-700 (Orteronel)],–,–,–,% Phosphatase Activity (compared to DMSO) PRL-1 (recombinant PRL-1; [2]): 128%; % Phosphatase Activity (compared to DMSO) PRL-2 (recombinant PRL-2; [2]): 107%; % Phosphatase Activity (compared to DMSO) PRL-3 (recombinant PRL-3; [2]): 87%
CCCCc1nc2cc(/C=C/C(=O)NO)ccc2n1CCN(CC)CC [Pracinostat (SB939)],96,87,80,–
OC(c1ccccc1)(c1ccccc1)C1CCNCC1 [Azacyclonol],109,127,96,–
Cl.Cl.O=C(O)COCCN1CCN(C(c2ccccc2)c2ccc(Cl)cc2)CC1 (stereo not drawn) [Cetirizine DiHCl],–,–,–,% Phosphatase Activity (compared to DMSO) PRL-1 (recombinant PRL-1): 92%; % Phosphatase Activity (compared to DMSO) PRL-2 (recombinant PRL-2): 89%; % Phosphatase Activity (compared to DMSO) PRL-3 (recombinant PRL-3): 84%
O=C(O)C[C@H](O)C[C@H](O)/C=C/c1c(C2CC2)nc2ccccc2c1-c1ccc(F)cc1 [Pitavastatin Calcium],82,88,92,–
O=c1[nH]c(=O)n([C@H]2C[C@H](O)[C@@H](CO)O2)cc1C(F)(F)F [Trifluridine],–,–,–,% Phosphatase Activity (compared to DMSO) PRL-1 (recombinant PRL-1; [2]): 89%; % Phosphatase Activity (compared to DMSO) PRL-2 (recombinant PRL-2; [2]): 101%; % Phosphatase Activity (compared to DMSO) PRL-3 (recombinant PRL-3; [2]): 91%
CC(C)[C@H](N)C(=O)OCC(CO)OCn1cnc2c(=O)nc(N)[nH]c21 (stereo partly drawn) [Valganciclovir HCl],–,–,–,% Phosphatase Activity (compared to DMSO) PRL-1 (recombinant PRL-1; [2]): 103%; % Phosphatase Activity (compared to DMSO) PRL-2 (recombinant PRL-2; [2]): 97%; % Phosphatase Activity (compared to DMSO) PRL-3 (recombinant PRL-3; [2]): 75%
CC1(COc2ccc3c(c2)ncn3-c2ccc3cccc(N4CCC(N)CC4)c3n2)COC1 [Crenolanib (CP-868596)],117,115,105,–
CN1CCN(C2=Nc3ccccc3Oc3ccc(Cl)cc32)CC1 [Loxapine Succinate],96,110,90,–
CCC(=O)O[C@]1(C(=O)CCl)[C@@H](C)C[C@H]2[C@@H]3CCC4=CC(=O)C=C[C@]4(C)[C@@]3(F)[C@@H](O)C[C@@]21C [Clobetasol propionate],92,88,78,–
CC(=O)SCC(Cc1ccccc1)C(=O)NCC(=O)OCc1ccccc1 (stereo not drawn) [Racecadotril],95,99,76,–
CC(C)c1cc(C(=O)N2Cc3ccc(CN4CCN(C)CC4)cc3C2)c(O)cc1O [AT13387],98,100,82,–
CCC(=O)OCC(=O)[C@@]1(OC(=O)CC)[C@@H](C)C[C@H]2[C@@H]3CCC4=CC(=O)C=C[C@]4(C)[C@@]3(F)[C@@H](O)C[C@@]21C [Betamethasone Dipropionate],92,83,84,–
CC(C)Cn1cnc2c(N)nc3ccccc3c21 [Imiquimod],98,106,67,–
Cc1cc(C(C)(C)C)cc(C)c1CC1=NCCN1 [Xylometazoline HCl],–,–,–,% Phosphatase Activity (compared to DMSO) PRL-1 (recombinant PRL-1; [2]): 98%; % Phosphatase Activity (compared to DMSO) PRL-2 (recombinant PRL-2; [2]): 117%; % Phosphatase Activity (compared to DMSO) PRL-3 (recombinant PRL-3; [2]): 88%
NNc1nncc2ccccc12 [Hydralazine HCl],–,–,–,% Phosphatase Activity (compared to DMSO) PRL-1 (recombinant PRL-1): 102%; % Phosphatase Activity (compared to DMSO) PRL-2 (recombinant PRL-2): 85%; % Phosphatase Activity (compared to DMSO) PRL-3 (recombinant PRL-3): 87%
NC(=O)c1ncn([C@@H]2O[C@H](CO)[C@@H](O)[C@H]2O)c1O [Mizoribine],93,78,85,–
"CCCCCOc1ccc(-c2cc(-c3ccc(C(=O)N[C@H]4C[C@@H](O)[C@@H](O)NC(=O)[C@@H]5[C@@H](O)[C@@H](C)CN5C(=O)[C@H]([C@H](O)CC(N)=O)NC(=O)[C@H]([C@H](O)[C@@H](O)c5ccc(O)c(OS(=O)(=O)[O-])c5)NC(=O)[C@@H]5C[C@@H](O)CN5C(=O)[C@H]([C@@H](C)O)NC4=O)cc3)no2)cc1.[Na+] [Micafungin Sodium] (X1-[Orn(4R-OH,5R-OH)]T[Hyp][hTyr(3S-OH,4S-OH,3'-OSO3H)][Gln(3R-OH)][Pro(3S-OH,4S-Me)]; lactam 1-C)",74,90,49,–
C1N2CN3CN1CN(C2)C3 [Methenamine],112,109,87,–
OC[C@@H](O)[C@@H](O)[C@H](O)[C@H](O)CO [D-Mannitol],93,101,104,–
CC(C)COc1ccc(CNC(=O)N(Cc2ccc(F)cc2)C2CCN(C)CC2)cc1 [Pimavanserin],95,88,95,–
COc1cc2/c(=N/c3ccc(Br)cc3F)nc[nH]c2cc1OCC1CCN(C)CC1 [Vandetanib (ZD6474)],–,–,–,% Phosphatase Activity (compared to DMSO) PRL-1 (recombinant PRL-1; [2]): 96%; % Phosphatase Activity (compared to DMSO) PRL-2 (recombinant PRL-2; [2]): 98%; % Phosphatase Activity (compared to DMSO) PRL-3 (recombinant PRL-3; [2]): 77%
C[C@H](Cn1cnc2c(N)ncnc21)OCP(=O)(O)O [Tenofovir],–,–,–,% Phosphatase Activity (compared to DMSO) PRL-1 (recombinant PRL-1; [2]): 103%; % Phosphatase Activity (compared to DMSO) PRL-2 (recombinant PRL-2; [2]): 120%; % Phosphatase Activity (compared to DMSO) PRL-3 (recombinant PRL-3; [2]): 100%
NCC[C@H](O)C(=O)N[C@@H]1C[C@H](N)[C@@H](O[C@H]2O[C@H](CN)[C@@H](O)[C@H](O)[C@H]2O)[C@H](O)[C@H]1O[C@H]1O[C@H](CO)[C@@H](O)[C@H](N)[C@H]1O [Amikacin disulfate],96,152,110,–
Cl.Cl.Clc1ccc(Nc2nnc(Cc3ccncc3)c3ccccc23)cc1 [Vatalanib (PTK787) 2HCl],–,–,–,% Phosphatase Activity (compared to DMSO) PRL-1 (recombinant PRL-1; [2]): 109%; % Phosphatase Activity (compared to DMSO) PRL-2 (recombinant PRL-2; [2]): 96%; % Phosphatase Activity (compared to DMSO) PRL-3 (recombinant PRL-3; [2]): 72%
CN1CCC(=C2c3ccccc3CC(=O)c3sccc32)CC1 [Ketotifen Fumarate],93,97,89,–

# Source: publication PMC8119466, “A screen of FDA-approved drugs identifies inhibitors of protein tyrosine phosphatase 4A3 (PTP4A3 or PRL-3)” (Scientific Reports, 2021)
